Details: in vivo, iv

For “4,4′-trimethylene dipiperidine bispropanoic acid-co-1,3-diamino propane”, the maximum tolerated dose was about 40 mg/kg.

Reference: US10583154B2, “Multi-dose compositions containing an antimicrobial polyamide or octenidine preservative” (priority 2016, dated 2020)
